# How the values were obtained:
# Homo sapiens [1] = species: Homo sapiens; test: (§1) Selectivity index, ratio of inhibition of full length human MKK7 (M1 to R419 residues) expressed in mammalian expression system assessed as residual percent of control binding at 100 nM relative to control to inhibition of partial length human MKK4 (S84 to D399 residues) expressed in mammalian expression system assessed as residual percent of control binding at 100 nM relative to control
# Homo sapiens [2] = species: Homo sapiens; test: as §1, with “JNK1” for “MKK7”, “Q384” for “R419”
# Homo sapiens [3] = species: Homo sapiens; test: Selectivity index, ratio of inhibition of B-raf (unknown origin) to inhibition of partial length human MKK4 (S84 to D399 residues) expressed in mammalian expression system assessed as residual percent of control binding at 100 nM relative to control
Compound,Selectivity ratio (Homo sapiens [1]),Selectivity ratio (Homo sapiens [2]),Selectivity ratio (Homo sapiens [3])
CCCS(=O)(=O)Nc1cccc(C(=O)c2ccc3[nH]c4ncc(Cl)cc4c3c2)c1F,> 30,> 30,> 30
CCCS(=O)(=O)Nc1ccc(F)c(C(=O)c2ccc3[nH]c4ncc(-c5ccncc5)cc4c3c2)c1F,> 30,> 30,> 30
CCCS(=O)(=O)Nc1ccc(F)c(C(=O)c2ccc3[nH]c4ncc(-c5ccc(S(=O)(=O)NCC(O)CO)nc5)cc4c3c2)c1F (configuration not stated),> 30,> 30,> 30
CS(=O)(=O)Nc1c(F)ccc(C(=O)c2ccc3[nH]c4ncc(Cl)cc4c3c2)c1F,> 30,> 30,> 30
CCCS(=O)(=O)Nc1ccc(F)c(C(=O)c2ccc3[nH]c4ncc(Cl)cc4c3c2)c1F,> 30,> 30,> 30
CCCS(=O)(=O)Nc1ccc(F)c(C(=O)c2ccc3[nH]c4ncc(-c5ccc(C(=O)NCC(O)CO)nc5)cc4c3c2)c1F (configuration not stated),> 30,> 30,> 30
CCCS(=O)(=O)Nc1ccc(F)c(C(=O)c2ccc3[nH]c4ncc(-c5ccc(OCC(O)CO)cc5)cc4c3c2)c1F (configuration not stated),> 30,> 30,> 30
CCCS(=O)(=O)Nc1ccc(F)c(C(=O)c2ccc3[nH]c4ncc(-c5ccc(-c6nnn[nH]6)cc5)cc4c3c2)c1F,> 30,> 30,> 30

# Second part, the molecule after the results:
Selectivity ratio (Homo sapiens [1]),Selectivity ratio (Homo sapiens [2]),Selectivity ratio (Homo sapiens [3]),Compound
> 30,> 30,> 30,CCCS(=O)(=O)Nc1ccc(F)c(C(=O)c2ccc3[nH]c4ncc(-c5ccc(C(=O)O)cc5)cc4c3c2)c1F
> 30,> 30,> 30,CCS(=O)(=O)Nc1ccc(F)c(C(=O)c2ccc3[nH]c4ncc(-c5ccc(S(N)(=O)=O)cc5)cc4c3c2)c1F
> 30,> 30,> 30,CCCS(=O)(=O)Nc1ccc(F)c(C(=O)c2ccc3[nH]c4ncc(-c5ccc(N)nc5)cc4c3c2)c1F
> 30,> 30,> 30,CCCS(=O)(=O)Nc1ccc(F)c(C(=O)c2ccc3[nH]c4ncc(-c5ccc(C(N)=O)cc5)cc4c3c2)c1F
> 30,> 30,> 30,CS(=O)(=O)Nc1ccc(F)c(C(=O)c2ccc3[nH]c4ncc(-c5ccc(S(N)(=O)=O)cc5)cc4c3c2)c1F
> 30,> 30,> 30,CCCS(=O)(=O)Nc1ccc(F)c(C(=O)c2ccc3[nH]c4ncc(-c5ccc(S(N)(=O)=O)cc5)cc4c3c2)c1F

# Reference: ChEMBL document CHEMBL4742403, “Tricyclic protein kinase inhibitors for promoting liver regeneration or reducing or preventing hepatocyte death” (2019)
